Where two headings read alike, the source gives them in different places.
Legend:
Assay in all cases: Kinase selectivity, P33-radiolabeled assay
Format in all cases: biochemical
Conditions in all cases: 10 μM ATP
[1] = target: T1, ABL1 (Homo sapiens, UniProt P00519)
T1 construct: purchased Reaction Biology Corp
Summary of the method: (§1)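 Reactions contained 10 μM ATP and 10 μM test compound, each run in duplicate. Kinase activity is expressed as a percentage of DMSO-treated controls.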

[2] = target: T2, CDK9/cyclin K (Homo sapiens, UniProt P50750)
T2 construct: purchased Reaction Biology Corp
Summary of the method: as §1

[3] = target: T3, FER (Homo sapiens, UniProt P16591)
T3 construct: purchased Reaction Biology Corp
Summary of the method: as §1

[4] = target: T4, LIMK1 (Homo sapiens, UniProt P53667)
T4 construct: purchased Reaction Biology Corp
Summary of the method: as §1

[5] = target: T5, LYN (Homo sapiens, UniProt P07948)
T5 construct: purchased Reaction Biology Corp
Summary of the method: as §1

[6] = target: T6, MLCK2/MYLK2 (Homo sapiens, UniProt Q9H1R3)
T6 construct: purchased Reaction Biology Corp
Summary of the method: as §1

[7] = target: T7, P38a/MAPK14 (Homo sapiens, UniProt Q16539)
T7 construct: purchased Reaction Biology Corp
Summary of the method: as §1

[8] = target: T8, RSK3 (Homo sapiens, UniProt Q15349)
T8 construct: purchased Reaction Biology Corp
Summary of the method: as §1

[9] = target: T9, TNIK (Homo sapiens, UniProt Q9UKE5)
T9 construct: purchased Reaction Biology Corp
Summary of the method: as §1

[10] = target: T10, TYRO3/SKY (Homo sapiens, UniProt Q06418)
T10 construct: purchased Reaction Biology Corp
T10 sequence (Q06418 41-890): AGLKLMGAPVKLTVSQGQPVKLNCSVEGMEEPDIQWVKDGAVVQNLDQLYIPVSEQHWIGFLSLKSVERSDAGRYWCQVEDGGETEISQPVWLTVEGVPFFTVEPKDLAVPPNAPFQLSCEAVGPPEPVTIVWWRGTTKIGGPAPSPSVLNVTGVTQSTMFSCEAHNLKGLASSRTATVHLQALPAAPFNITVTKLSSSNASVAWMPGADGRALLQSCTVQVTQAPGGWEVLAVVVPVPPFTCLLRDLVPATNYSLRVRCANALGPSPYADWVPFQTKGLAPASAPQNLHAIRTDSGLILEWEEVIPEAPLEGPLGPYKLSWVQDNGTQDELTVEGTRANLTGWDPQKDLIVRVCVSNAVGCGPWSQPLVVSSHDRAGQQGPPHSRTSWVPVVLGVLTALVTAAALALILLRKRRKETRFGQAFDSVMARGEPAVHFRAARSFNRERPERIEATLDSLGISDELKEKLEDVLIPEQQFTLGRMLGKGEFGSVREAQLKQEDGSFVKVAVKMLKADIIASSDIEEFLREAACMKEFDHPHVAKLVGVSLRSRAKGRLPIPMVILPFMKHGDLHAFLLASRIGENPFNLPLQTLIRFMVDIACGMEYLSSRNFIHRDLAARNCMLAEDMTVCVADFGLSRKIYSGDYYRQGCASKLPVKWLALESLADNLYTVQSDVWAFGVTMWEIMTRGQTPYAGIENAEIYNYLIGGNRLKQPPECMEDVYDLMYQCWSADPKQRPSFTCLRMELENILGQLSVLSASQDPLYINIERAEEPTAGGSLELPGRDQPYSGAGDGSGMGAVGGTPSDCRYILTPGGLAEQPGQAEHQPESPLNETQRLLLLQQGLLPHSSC
Summary of the method: as §1

[11] = target: T11, ULK1 (Homo sapiens, UniProt O75385)
T11 construct: purchased Reaction Biology Corp
T11 sequence (O75385 1-1050): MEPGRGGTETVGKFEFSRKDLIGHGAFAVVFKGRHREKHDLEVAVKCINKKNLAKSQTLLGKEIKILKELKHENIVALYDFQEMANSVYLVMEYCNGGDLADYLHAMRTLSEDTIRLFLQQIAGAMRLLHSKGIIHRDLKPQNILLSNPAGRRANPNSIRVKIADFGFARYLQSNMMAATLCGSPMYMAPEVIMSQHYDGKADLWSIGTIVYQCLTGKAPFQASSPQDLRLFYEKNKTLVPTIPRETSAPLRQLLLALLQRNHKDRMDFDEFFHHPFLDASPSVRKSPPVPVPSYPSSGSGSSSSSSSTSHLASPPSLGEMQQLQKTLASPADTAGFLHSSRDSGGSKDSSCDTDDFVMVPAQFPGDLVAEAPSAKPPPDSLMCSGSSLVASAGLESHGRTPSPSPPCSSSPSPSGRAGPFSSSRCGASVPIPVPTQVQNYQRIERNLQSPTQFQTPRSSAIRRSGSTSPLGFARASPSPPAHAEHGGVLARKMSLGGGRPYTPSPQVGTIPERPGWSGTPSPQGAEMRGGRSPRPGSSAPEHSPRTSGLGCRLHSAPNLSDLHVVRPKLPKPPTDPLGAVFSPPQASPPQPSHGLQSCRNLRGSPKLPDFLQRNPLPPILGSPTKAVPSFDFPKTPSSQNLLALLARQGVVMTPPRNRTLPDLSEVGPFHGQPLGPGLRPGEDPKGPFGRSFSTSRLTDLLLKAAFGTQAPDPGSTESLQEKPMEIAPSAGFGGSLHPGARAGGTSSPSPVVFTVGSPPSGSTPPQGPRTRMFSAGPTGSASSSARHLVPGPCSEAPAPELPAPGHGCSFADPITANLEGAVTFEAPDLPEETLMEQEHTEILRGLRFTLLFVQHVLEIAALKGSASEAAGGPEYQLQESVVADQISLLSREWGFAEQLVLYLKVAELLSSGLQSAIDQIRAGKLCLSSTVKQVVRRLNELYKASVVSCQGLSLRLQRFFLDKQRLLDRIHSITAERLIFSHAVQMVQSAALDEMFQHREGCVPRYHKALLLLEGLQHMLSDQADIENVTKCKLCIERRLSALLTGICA
Summary of the method: as §1

[12] = read-out: % Enzyme Activity (relative to DMSO controls) AVG
[13] = read-out: % Enzyme Activity (relative to DMSO controls) Data 1
[14] = read-out: % Enzyme Activity (relative to DMSO controls) Data 2

T4 sequence (P53667 whole entry): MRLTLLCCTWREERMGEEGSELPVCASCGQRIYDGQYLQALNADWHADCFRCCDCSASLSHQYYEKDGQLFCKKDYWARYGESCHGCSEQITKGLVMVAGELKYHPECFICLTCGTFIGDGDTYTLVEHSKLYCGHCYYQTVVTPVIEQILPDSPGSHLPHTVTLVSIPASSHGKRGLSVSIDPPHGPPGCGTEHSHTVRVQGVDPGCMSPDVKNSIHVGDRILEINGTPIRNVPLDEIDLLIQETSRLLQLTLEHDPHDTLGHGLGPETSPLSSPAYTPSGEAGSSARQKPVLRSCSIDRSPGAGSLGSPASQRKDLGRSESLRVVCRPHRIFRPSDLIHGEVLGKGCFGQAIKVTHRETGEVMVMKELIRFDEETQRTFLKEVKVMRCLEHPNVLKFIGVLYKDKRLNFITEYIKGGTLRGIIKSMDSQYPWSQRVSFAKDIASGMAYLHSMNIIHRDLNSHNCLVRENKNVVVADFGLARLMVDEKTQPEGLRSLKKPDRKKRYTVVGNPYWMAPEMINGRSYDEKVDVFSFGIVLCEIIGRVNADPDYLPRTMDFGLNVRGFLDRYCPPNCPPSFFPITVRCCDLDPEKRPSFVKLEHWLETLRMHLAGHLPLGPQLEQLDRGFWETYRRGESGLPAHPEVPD
T9 sequence (Q9UKE5 whole entry): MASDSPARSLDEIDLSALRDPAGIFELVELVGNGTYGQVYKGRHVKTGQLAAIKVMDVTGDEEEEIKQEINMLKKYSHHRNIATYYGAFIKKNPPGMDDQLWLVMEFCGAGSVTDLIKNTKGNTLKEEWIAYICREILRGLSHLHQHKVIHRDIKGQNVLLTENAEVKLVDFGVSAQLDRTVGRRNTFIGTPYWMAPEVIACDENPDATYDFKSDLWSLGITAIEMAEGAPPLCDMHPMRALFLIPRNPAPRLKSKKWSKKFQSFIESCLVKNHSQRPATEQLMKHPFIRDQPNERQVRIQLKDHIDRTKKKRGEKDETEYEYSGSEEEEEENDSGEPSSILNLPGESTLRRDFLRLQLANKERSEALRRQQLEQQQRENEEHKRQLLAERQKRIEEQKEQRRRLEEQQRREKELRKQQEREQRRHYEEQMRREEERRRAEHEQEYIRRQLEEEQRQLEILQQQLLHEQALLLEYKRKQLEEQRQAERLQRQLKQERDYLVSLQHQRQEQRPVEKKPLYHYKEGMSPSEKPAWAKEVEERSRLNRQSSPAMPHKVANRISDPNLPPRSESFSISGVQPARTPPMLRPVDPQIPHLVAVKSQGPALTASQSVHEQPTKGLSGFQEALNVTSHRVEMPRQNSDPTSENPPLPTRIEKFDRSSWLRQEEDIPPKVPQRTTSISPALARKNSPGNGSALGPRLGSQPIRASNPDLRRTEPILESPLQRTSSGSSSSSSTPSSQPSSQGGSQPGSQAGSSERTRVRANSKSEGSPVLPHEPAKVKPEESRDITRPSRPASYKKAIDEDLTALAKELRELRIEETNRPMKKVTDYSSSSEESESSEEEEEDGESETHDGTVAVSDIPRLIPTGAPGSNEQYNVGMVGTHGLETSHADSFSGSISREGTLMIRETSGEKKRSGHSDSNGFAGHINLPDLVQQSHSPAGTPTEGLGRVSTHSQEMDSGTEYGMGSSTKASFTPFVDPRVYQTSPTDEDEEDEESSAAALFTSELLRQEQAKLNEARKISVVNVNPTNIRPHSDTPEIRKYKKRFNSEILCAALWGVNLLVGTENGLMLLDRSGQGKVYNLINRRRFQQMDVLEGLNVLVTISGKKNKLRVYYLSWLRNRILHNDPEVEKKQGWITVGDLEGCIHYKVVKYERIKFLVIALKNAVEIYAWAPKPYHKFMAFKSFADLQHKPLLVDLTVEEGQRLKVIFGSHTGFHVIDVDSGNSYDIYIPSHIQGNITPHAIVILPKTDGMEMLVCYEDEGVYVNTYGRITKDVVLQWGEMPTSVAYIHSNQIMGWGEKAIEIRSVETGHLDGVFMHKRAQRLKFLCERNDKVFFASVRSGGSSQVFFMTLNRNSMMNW
T1 sequence (P00519 whole entry): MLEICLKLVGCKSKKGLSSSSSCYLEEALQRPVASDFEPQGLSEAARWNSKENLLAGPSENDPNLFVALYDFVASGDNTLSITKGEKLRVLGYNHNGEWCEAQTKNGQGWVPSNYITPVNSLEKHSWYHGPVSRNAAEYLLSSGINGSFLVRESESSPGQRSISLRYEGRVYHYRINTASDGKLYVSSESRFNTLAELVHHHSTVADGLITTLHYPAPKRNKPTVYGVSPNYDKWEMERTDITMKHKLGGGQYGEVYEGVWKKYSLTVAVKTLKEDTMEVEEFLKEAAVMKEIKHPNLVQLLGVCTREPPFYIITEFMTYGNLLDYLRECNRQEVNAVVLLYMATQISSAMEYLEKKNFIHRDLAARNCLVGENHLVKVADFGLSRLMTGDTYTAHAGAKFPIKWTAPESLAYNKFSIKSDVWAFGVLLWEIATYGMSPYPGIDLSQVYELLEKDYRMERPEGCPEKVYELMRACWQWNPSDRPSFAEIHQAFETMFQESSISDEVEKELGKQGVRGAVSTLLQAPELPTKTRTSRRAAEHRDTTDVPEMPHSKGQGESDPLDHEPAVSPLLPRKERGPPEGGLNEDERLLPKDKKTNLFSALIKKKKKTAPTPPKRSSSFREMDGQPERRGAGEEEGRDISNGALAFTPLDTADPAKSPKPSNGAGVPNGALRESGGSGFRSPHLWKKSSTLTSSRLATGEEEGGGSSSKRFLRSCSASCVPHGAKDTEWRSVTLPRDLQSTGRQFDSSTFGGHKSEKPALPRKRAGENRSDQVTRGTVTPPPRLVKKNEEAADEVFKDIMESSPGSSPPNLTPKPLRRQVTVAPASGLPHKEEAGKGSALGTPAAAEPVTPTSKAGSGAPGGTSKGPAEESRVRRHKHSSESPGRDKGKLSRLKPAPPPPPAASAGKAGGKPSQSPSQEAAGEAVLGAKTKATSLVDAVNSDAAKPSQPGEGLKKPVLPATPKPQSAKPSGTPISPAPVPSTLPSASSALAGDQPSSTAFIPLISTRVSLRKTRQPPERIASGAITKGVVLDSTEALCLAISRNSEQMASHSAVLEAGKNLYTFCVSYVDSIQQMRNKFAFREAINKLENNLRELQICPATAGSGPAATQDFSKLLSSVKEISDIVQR
T8 sequence (Q15349 whole entry): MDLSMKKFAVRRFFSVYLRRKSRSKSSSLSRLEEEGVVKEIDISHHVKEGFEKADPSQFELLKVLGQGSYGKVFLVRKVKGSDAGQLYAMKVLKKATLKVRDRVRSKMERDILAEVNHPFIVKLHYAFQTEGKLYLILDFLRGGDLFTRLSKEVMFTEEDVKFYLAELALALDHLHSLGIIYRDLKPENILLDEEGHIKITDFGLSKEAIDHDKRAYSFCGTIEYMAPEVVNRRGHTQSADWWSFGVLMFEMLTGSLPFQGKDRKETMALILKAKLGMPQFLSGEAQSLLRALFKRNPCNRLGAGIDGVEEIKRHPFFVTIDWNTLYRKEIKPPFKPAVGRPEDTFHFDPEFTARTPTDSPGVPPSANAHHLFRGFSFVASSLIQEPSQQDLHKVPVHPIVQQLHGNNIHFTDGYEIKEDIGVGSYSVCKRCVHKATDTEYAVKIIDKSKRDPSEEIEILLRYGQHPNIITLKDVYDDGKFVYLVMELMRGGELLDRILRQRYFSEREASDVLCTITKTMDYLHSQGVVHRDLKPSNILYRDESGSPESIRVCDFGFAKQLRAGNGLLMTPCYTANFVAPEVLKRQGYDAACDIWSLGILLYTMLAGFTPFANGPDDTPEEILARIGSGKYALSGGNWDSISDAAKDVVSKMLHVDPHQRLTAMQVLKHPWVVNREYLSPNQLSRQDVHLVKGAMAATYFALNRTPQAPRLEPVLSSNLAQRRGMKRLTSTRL
T7 sequence (Q16539 whole entry): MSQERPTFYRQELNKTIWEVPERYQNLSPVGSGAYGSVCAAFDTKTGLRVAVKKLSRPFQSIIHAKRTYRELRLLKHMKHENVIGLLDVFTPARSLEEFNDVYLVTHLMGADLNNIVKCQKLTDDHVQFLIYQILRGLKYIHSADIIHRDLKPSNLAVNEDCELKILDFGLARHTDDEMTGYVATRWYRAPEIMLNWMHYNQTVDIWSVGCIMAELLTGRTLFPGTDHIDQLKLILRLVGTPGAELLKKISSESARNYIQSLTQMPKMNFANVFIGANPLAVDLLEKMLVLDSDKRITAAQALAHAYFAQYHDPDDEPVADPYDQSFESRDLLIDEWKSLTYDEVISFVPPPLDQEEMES
T3 sequence (P16591 whole entry): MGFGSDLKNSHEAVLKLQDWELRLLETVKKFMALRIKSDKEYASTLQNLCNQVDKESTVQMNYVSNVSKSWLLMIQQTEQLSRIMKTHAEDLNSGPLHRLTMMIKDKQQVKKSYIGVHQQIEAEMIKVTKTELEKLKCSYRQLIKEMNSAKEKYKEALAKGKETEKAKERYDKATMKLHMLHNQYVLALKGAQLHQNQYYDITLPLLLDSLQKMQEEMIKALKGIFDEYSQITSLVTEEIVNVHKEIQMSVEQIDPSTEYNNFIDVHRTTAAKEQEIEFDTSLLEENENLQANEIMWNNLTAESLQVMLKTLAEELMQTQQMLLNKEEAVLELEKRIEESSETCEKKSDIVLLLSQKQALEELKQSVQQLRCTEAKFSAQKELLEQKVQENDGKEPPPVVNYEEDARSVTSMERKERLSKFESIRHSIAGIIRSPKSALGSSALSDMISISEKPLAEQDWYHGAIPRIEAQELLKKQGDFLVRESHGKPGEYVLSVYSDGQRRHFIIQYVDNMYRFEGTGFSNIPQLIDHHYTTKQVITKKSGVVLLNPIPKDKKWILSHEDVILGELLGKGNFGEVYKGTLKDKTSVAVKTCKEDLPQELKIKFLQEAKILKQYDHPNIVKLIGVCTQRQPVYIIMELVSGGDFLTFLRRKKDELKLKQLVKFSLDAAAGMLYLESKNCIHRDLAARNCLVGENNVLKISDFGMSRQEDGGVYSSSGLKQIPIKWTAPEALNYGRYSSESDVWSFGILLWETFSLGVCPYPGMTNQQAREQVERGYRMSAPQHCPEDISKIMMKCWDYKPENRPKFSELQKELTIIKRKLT

## CC(C)(C)C(=O)N1N=CC[C@H]1c1ccccc1 [GSK′963]
[1]; [12]
  remaining activity at 10 µM: 99.3%
[1]; [13]
  remaining activity at 10 µM: 102%
[1]; [14]
  remaining activity at 10 µM: 96.9%
[2]; [12]
  remaining activity at 10 µM: 114%
[2]; [13]
  remaining activity at 10 µM: 112%
[2]; [14]
  remaining activity at 10 µM: 116%
[3]; [12]
  remaining activity at 10 µM: 107%
[3]; [13]
  remaining activity at 10 µM: 109%
[3]; [14]
  remaining activity at 10 µM: 105%
[4]; [12]
  remaining activity at 10 µM: 113%
[4]; [13]
  remaining activity at 10 µM: 112%
[4]; [14]
  remaining activity at 10 µM: 114%
[5]; [12]
  remaining activity at 10 µM: 107%
[5]; [13]
  remaining activity at 10 µM: 109%
[5]; [14]
  remaining activity at 10 µM: 105%
[6]; [12]
  remaining activity at 10 µM: 104%
[6]; [13]
  remaining activity at 10 µM: 106%
[6]; [14]
  remaining activity at 10 µM: 102%
[7]; [12]
  remaining activity at 10 µM: 94%
[7]; [13]
  remaining activity at 10 µM: 92.9%
[7]; [14]
  remaining activity at 10 µM: 95.2%
[8]; [12]
  remaining activity at 10 µM: 101%
[8]; [13]
  remaining activity at 10 µM: 102%
[8]; [14]
  remaining activity at 10 µM: 99.6%
[9]; [12]
  remaining activity at 10 µM: 106%
[9]; [13]
  remaining activity at 10 µM: 108%
[9]; [14]
  remaining activity at 10 µM: 104%
[10]; [12]
  remaining activity at 10 µM: 97.2%
[10]; [13]
  remaining activity at 10 µM: 97.1%
[10]; [14]
  remaining activity at 10 µM: 97.3%
[11]; [12]
  remaining activity at 10 µM: 106%
[11]; [13]
  remaining activity at 10 µM: 106%
[11]; [14]
  remaining activity at 10 µM: 106%

Reference: PMC4979471 (Cell Death Discovery, 2015)
